Results taken from patent publication US12557811B2, “Effective and eco-friendly disinfectant” (The Hong Kong University of Science and Technology, priority 2022, dated 2026).
Read-outs that look alike come from different tables or passages of the source.

Tests used:
[1] = Degradation kinetics with solar irradiation
E. coli = assay: Disinfection experiments, membrane filter enumeration, E. coli; type: cell-based, Escherichia coli
Description: Disinfection experiments were performed in phosphate buffer saline (PBS; 10 mM, pH 7.2) with an initial concentration of E. coli of 10^6-10^7 colony forming units per milliliter (CFU mL^−1). Different concentrations of disinfection byproducts were added to the cell suspensions individually at room temperature (˜22° C.) with a contact time of 5 min. After the given contact time, the microorganism cells were enumerated following a membrane filter method. Briefly, serial ten-fold dilutions were conducted for the disinfected samples and the control sample without disinfection. Each diluted suspension was subjected to filtration through 0.45-μm membrane, which was then placed on a petri dish containing m-FC medium. After incubation at 45° C. for 24 hours, the colony forming units within a statistically reasonable range (20-80) were counted. The disinfection experiments were performed in duplicate. All the materials for the disinfection experiments were autoclaved at 121° C. for 15 min and cooled to room temperature before use.
(§1) The disinfection experiments were performed in PBS solutions (10 mM, pH 7.2) with an initial concentration of E. coli, S. aureus, or C. albicans of 10^6-10^7 CFU mL^−1. Different concentrations of 2,6-DCQ or PCMX were added to the cell suspensions at room temperature (˜22° C.) After the given contact time (i.e., 5 min), the microorganism cells were enumerated following a membrane filter method. Briefly, serial ten-fold dilutions were conducted for the disinfected samples and the control sample without disinfection. Each diluted suspension was filtered through a 0.45-μm filter paper, which was then placed on a petri dish. The petri dishes containing E. coli, S. aureus, and C. albicans were incubated in m-FC medium at 45° C. for 24 h, Tryptone Soya broth at 37° C. for 24 h, and Sabouraud Dextrose broth at 37° C. for 24 h, respectively. After incubation, the colony forming units within a statistically reasonable range (20-80) were counted. The disinfection experiments were performed in duplicate. All the materials for the disinfection experiments were autoclaved at 121° C. for 15 min and cooled to room temperature before use.
The disinfection experiments were performed in PBS solutions (10 mM, pH 7.2) with an initial concentration of E. coli of 10^6-10^7 CFU mL^−1. 2,5-Dichloro-1,4-benzoquinone (7.5 and 15 mg L^−1) or 2,6-DCQ (7.5 and 15 mg L^−1) was added to the cell suspensions at room temperature (˜22° C.). After the given contact time (i.e., 5 min), the microorganism cells were enumerated following a membrane filter method. Briefly, serial ten-fold dilutions were conducted for the disinfected samples and the control sample without disinfection. Each diluted suspension was subjected to filtration through 0.45-μm membrane, which was then placed on a petri dish. The petri dishes containing E. coli were incubated in m-FC medium at 45° C. for 24 hours. After incubation, the colony forming units within a statistically reasonable range (20-80) were counted. The disinfection experiments were performed in duplicate. All the materials for the disinfection experiments were autoclaved at 121° C. for 15 min and cooled to room temperature before use.
The disinfection experiments were performed in PBS solutions (10 mM, pH 7.2) with an initial concentration of E. coli of 10^6-10^7 CFU mL^−1. 2,6-DBQ (2,6-dibromo-1,4-benzoquinone), 2,6-DIQ (2,6-diiodo-1,4-benzoquinone), or 2,6-DCQ was added to the cell suspensions at room temperature (˜22° C.) with a contact time of 5 min. After the given contact time, the microorganism cells were enumerated following a membrane filter method. Briefly, serial ten-fold dilutions were conducted for the disinfected samples and the control sample without disinfection. Each diluted suspension was subjected to filtration through 0.45-μm membrane, which was then placed on a petri dish. The petri dishes containing E. coli were incubated in m-FC medium at 45° C. for 24 hours.

[2] = Degradation kinetics without solar irradiation (darkness); type: physicochemical
S. aureus = assay: Disinfection experiments, membrane filter enumeration, S. aureus; type: cell-based, Staphylococcus aureus; details: for inactivation rate constant / Dose for achieving 3-log (99.9%) inactivation: S. aureus
Description: as §1

C. albicans = assay: Disinfection experiments, membrane filter enumeration, C. albicans; type: cell-based, Candida albicans; details: for inactivation rate constant / Dose for achieving 3-log (99.9%) inactivation: C. albicans
Description: as §1

[3] = tested on: E. coli, S. aureus and C. albicans; assay: Disinfection experiments, comparison across the three types of pathogens; type: cell-based, Escherichia coli, Staphylococcus aureus, Candida albicans
Description: as §1

P. dumerilii embryos = assay: P. dumerilii embryo developmental toxicity; type: in vivo, Platynereis dumerilii
Text: The doses of 2,6-DCQ and PCMX for 3-log E. coli inactivation (pH 7.2) were set as the in-use concentrations, which were serially diluted and added to the embryos of a marine polychactc, Platynereis dumerilii, at 12-hour postfertilization. A dilution factor was defined as the ratio of the in-use concentration to the exposure concentration. Each exposure set contained a control sample (i.e., the embryos at 12-hour postfertilization developed in seawater). By 24-hour postfertilization, normally developed embryos should have reached the first larval stage. An inverted stereomicroscope (40× magnification) was used to observe the larvae. The normal development percentage was calculated as the ratio of normally developed embryos to total embryos. By plotting the curve of the normal development percentage versus the dilution factor, the EC50,DF value (i.e., the dilution factor corresponding to 50% of the normal development percentage of the control sample) was obtained using SigmaPlot 12. The developmental toxicity test was conducted in duplicate.

[4] = Storage stability in solid form or in an organic solvent; type: physicochemical
zebrafish embryos = details: in vivo; cited from earlier work
rainbow trout = details: environmentally relevant concentrations (˜4.2 μg L^−1); cited from earlier work
[5] = tested on: antibiotic resistance genes; details: environmentally relevant concentrations; cited from earlier work
[6] = pH not given, read-out: Half-life, without solar irradiation (converted)

Oc1ccc(Br)cc1Br [2,4-Dibromophenol, 2,4-dibromophenol]
half-life [1]: 35 h | k, degradation, with solar irradiation ([1]; pH not given): 0.0201 h⁻¹

Oc1ccc(Cl)cc1Cl [2,4-Dichlorophenol, 2,4-dichlorophenol]
half-life (physchem): 44 h | k, degradation, with solar irradiation ([1]; pH not given): 0.0157 h⁻¹

Oc1ccc(I)cc1I [2,4-Diiodophenol, 2,4-diiodophenol]
Half-life, with solar irradiation ([1]; pH not given): 83 h | k, degradation, with solar irradiation ([1]; pH not given): 0.0083 h⁻¹

O=C1C=C(Cl)C(=O)C=C1Cl [2,5-DCQ, 2,5-dichloro-1,4-benzoquinone]
disinfection efficacy compared with 2,6-DCQ (E. coli; pH 7.2): comparable disinfection efficacy

Oc1cc(Br)c(O)cc1Br [2,5-Dibromohydroquinone, 2,5-dibromohydroquinone]
k, degradation, without solar irradiation ([2]; pH not given): 0.0767 h⁻¹ | half-life [2, 6]: 0.15 h | half-life [1]: 0.15 h | k, degradation, with solar irradiation ([1]; pH not given): 0.787 h⁻¹

Oc1cc(Cl)c(O)cc1Cl [2,5-Dichlorohydroquinone, 2,5-dichlorohydroquinone]
k, degradation, without solar irradiation ([2]; pH not given): 0.0922 h⁻¹ | half-life [2, 6]: 0.13 h | half-life [1]: 0.11 h | k, degradation, with solar irradiation ([1]; pH not given): 0.101 h⁻¹

Oc1cc(I)c(O)cc1I [2,5-Diiodohydroquinone, 2,5-diiodohydroquinone]
k, degradation, without solar irradiation ([2]; pH not given): 0.078 h⁻¹ | half-life [2, 6]: 0.15 h | half-life [1]: 0.15 h | k, degradation, with solar irradiation ([1]; pH not given): 0.756 h⁻¹

O=C1C=C(Br)C(=O)C(Br)=C1 [2,6-DBQ, 2,6-dibromo-1,4-benzoquinone]
disinfection efficacy compared with 2,6-DCQ (E. coli; pH 7.2): comparable disinfection efficacy

O=C1C=C(Cl)C(=O)C(Cl)=C1 [2,6-DCQ, 2,6-dichloro-1,4-benzoquinone]
inactivation (E. coli): 99.9% | inactivation rate constant (E. coli): 91700 µL/min/mg | dose required for 99.9% inactivation, times lower than those of the other nine disinfection byproducts (E. coli; E. coli, contact time of 5 minutes): 8.8-500 times | inactivation rate constant, times greater than those of other disinfection byproducts (E. coli; E. coli, versus the other nine disinfection byproducts): 8.8-500 times | Dose for achieving 3-log (99.9%) inactivation (E. coli; pH 7.2): 12.8 mg/L | inactivation rate constant (E. coli; pH 7.2): 91700 µL/min/mg | inactivation rate constant (S. aureus): 20000 µL/min/mg | Dose for achieving 3-log (99.9%) inactivation (S. aureus; pH 7.2, contact time 5 min): 29.4 mg/L | inactivation rate constant (S. aureus; pH 7.2, contact time 5 min): 20000 µL/min/mg | inactivation (S. aureus; Staphylococcus aureus ATCC 25923, contact time of 5 minutes): 99.9% | inactivation rate constant (C. albicans): 31200 µL/min/mg | Dose for achieving 3-log (99.9%) inactivation (C. albicans; pH 7.2, contact time 5 min): 35.7 mg/L | inactivation rate constant (C. albicans; pH 7.2, contact time 5 min): 31200 µL/min/mg | inactivation (C. albicans; Candida albicans ATCC 14053, contact time of 5 minutes): 99.9% | disinfection efficacy, times higher than PCMX [3]: 10-15 times | reduction of disinfectant doses for 99.9% inactivation by switching from PCMX to 2,6-DCQ ([3]; E. coli, S. aureus and C. albicans): 89-93% | in-use doses for 99.9% inactivation, times lower than the corresponding doses of PCMX ([3]; E. coli, S. aureus and C. albicans, contact time 5 min): 10-15 times | half-life ([2]; buffer, pH 6.2, read-out: half-life in darkness (converted)): 65.5 h | half-life ([2]; buffer, pH 7.2, read-out: half-life in darkness (converted)): 15.1 h | Half-life, without solar irradiation ([2]; pH 6.2): 65.5 h | k, degradation, without solar irradiation ([2]; pH 6.2): 0.010 h⁻¹ | Half-life, without solar irradiation ([2]; pH 7.2): 15.1 h | k, degradation, without solar irradiation ([2]; pH 7.2): 0.046 h⁻¹ | Half-life, without solar irradiation ([2]; pH 8.2): 1.74 h | k, degradation, without solar irradiation ([2]; pH 8.2): 0.397 h⁻¹ | developmental toxicity, times lower than PCMX (P. dumerilii embryos; 48 hours after discharge into seawater): 31 times | developmental toxicity compared with PCMX (P. dumerilii embryos; after 2 hours of degradation in seawater): lower developmental toxicity | time remaining stable [4]: at least 24 months | Half-life, with solar irradiation ([1]; pH 6.2): 4.13 h | k, degradation, with solar irradiation ([1]; pH 6.2): 0.17 h⁻¹ | half-life under solar irradiation ([1]; pH 7.2): 3.20 h | k, degradation, with solar irradiation ([1]; pH 7.2): 0.22 h⁻¹ | Half-life, with solar irradiation ([1]; pH 8.2): 1.33 h | k, degradation, with solar irradiation ([1]; pH 8.2): 0.52 h⁻¹ | half-lives, times shorter than those of PCMX ([1]; seawater (pH 8.2), with and without solar irradiation): about 200 times

O=C1C=C(I)C(=O)C(I)=C1 [2,6-DIQ, 2,6-diiodo-1,4-benzoquinone]
disinfection efficacy compared with 2,6-DCQ (E. coli; pH 7.2): comparable disinfection efficacy

para-chloro-meta-xylenol [PCMX, reference compound]
inactivation rate constant (E. coli; E. coli): 11000 µL/min/mg | inactivation rate constant (E. coli; E. coli, pH 7.2, contact time 5 min): 11000 µL/min/mg | Dose for achieving 3-log (99.9%) inactivation (E. coli; pH 7.2): 188 mg/L | inactivation rate constant (S. aureus): 3500 µL/min/mg | Dose for achieving 3-log (99.9%) inactivation (S. aureus; pH 7.2, contact time 5 min): 312 mg/L | inactivation rate constant (S. aureus; pH 7.2, contact time 5 min): 3500 µL/min/mg | inactivation rate constant (C. albicans): 3500 µL/min/mg | Dose for achieving 3-log (99.9%) inactivation (C. albicans; pH 7.2, contact time 5 min): 325 mg/L | inactivation rate constant (C. albicans; pH 7.2, contact time 5 min): 3500 µL/min/mg | in-use doses for 99.9% inactivation, times higher than those of 2,6-DCQ ([3]; three types of pathogens, contact time 5 min): 10-15 times | Half-life, without solar irradiation ([2]; pH 8.2): 5578 h | k, degradation, without solar irradiation ([2]; pH 8.2): 0.00012 h⁻¹ | Half-life, without solar irradiation ([2]; seawater pH (pH 8.2)): ~5760 h | adverse effects in zebrafish embryos (zebrafish embryos): mortality, morphological malformations, and neurotoxicity | effects of chronic exposure in rainbow trout (rainbow trout): gene regulation and morphological changes | effect on antibiotic resistance genes [5]: promote the spread of antibiotic resistance genes | Half-life, with solar irradiation ([1]; pH 8.2): 257 h | k, degradation, with solar irradiation ([1]; pH 8.2): 0.0027 h⁻¹ | half-life under solar irradiation ([1]; pH 8.2, seawater pH): 257 h
